Measured values reported in paper PMC8010047, “New insights into the molecular mechanism behind mannitol and erythritol fructosylation by β-fructofuranosidase from Schwanniomyces occidentalis” (Scientific Reports, 2021).

What was measured:
[1] = target: T1, β-fructofuranosidase from Schwanniomyces occidentalis (Ffase) (Schwanniomyces occidentalis, UniProt E5D0X5, D50A); assay: X-ray crystallography (soaking); format: binding
T1 construct: expressed in Saccharomyces cerevisiae (SUC2-disrupted), secreted, DEAE-purified; homodimer of 160 kDa, 535 residues per subunit; GH32; deglycosylated for crystals

[2] = target: T1, β-fructofuranosidase from Schwanniomyces occidentalis (Ffase); assay: X-ray crystallography; format: binding; settings: crystals incubated with fructosyl-mannitol, sucrose from traces in the product; deglycosylated inactive mutant; active site subsites -1/+1; paper deposits 6S2B and 6S1T without assigning them

T1 sequence (E5D0X5 entry or part of it D50A): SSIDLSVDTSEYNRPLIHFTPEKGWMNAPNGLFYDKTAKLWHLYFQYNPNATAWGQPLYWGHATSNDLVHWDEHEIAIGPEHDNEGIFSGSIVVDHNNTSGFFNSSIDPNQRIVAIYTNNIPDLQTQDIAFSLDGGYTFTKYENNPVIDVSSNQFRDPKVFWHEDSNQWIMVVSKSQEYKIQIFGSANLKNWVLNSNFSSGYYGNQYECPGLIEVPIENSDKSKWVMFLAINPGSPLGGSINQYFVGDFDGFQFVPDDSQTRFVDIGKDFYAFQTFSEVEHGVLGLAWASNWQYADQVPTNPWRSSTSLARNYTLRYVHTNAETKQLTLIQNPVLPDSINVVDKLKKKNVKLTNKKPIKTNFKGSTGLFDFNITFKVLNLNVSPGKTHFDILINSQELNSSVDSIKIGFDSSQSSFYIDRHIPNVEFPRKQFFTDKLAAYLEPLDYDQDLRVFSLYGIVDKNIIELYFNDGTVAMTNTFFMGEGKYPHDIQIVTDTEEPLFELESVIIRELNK

## OCC(O)C(O)CO[C@]1(CO)O[C@H](CO)[C@@H](O)[C@@H]1O (stereo partly drawn) [fructosyl-erythritol, 1/4-O-β-D-fructofuranosyl-D-erythritol]
[1]; 100 mM ligand soak, pH 6.0, deglycosylated inactive mutant, active site subsites -1/+1, 1.88 Å, paper deposits 6S2B and 6S1T without assigning them
  X-ray crystallography (soaking): The formation of Ffase-D50A/fructosyl-erythritol complex was clearly detected

## OC[C@H]1O[C@@](CO)(O[C@H]2O[C@H](CO)[C@@H](O)[C@H](O)[C@H]2O)[C@@H](O)[C@@H]1O [sucrose]
[2]
  X-ray crystallography: only sucrose was observed in crystals grown in the presence of fructosyl-mannitol

## OC[C@@]1(O)OC[C@@H](O)[C@@H](O)[C@@H]1O [β-fructose]
[1]; soaked with β-fructose plus mannitol or erythritol, active site, structure not deposited
  X-ray crystallography (soaking): only fructose was bound at the active site in both experiments
